Data reported in patent publication US20250059610A1, “METHODS OF TREATING TUMOR” (priority 2017, published 2025).

What was measured:
[1] = test system: metastatic or surgically unresectable urothelial carcinoma (UC); experiment: Single-arm phase II study of nivolumab (CheckMate 275), TMB analysis; type: in vivo, human
Protocol: Tumor DNA from pretreatment archival tumor tissue and matched whole blood samples was profiled by whole exome sequencing. TMB was defined as the total number of missense somatic mutations per tumor, and was evaluated as a continuous variable and by tertiles (missense count: high 167, medium 85-166, low <85). Cox models were used to explore the association between TMB and progression-free survival (PFS) and overall survival (OS); and logistic regression for objective response rate (ORR). Tumor PD-ligand 1 (PD-L1) expression was assessed by Dako PD-L1 immunohistochemistry 28-8 assay and was categorized as <1%.

[2] = test system: stage IV or recurrent NSCLC; experiment: Phase 3 study of first-line nivolumab versus platinum-based chemotherapy: efficacy; type: in vivo, human
Text: The primary endpoint was progression-free survival (PFS) per blinded independent central review in patients with ≥5% PD-L1 expression.
Eligible adult patients had histologically confirmed squamous or nonsquamous stage IV/recurrent NSCLC, ECOG PS 0-1, and measurable disease per RECIST 1.1,^15 and had received no prior systemic anticancer therapy as primary therapy for advanced or metastatic disease. Patients with central nervous system metastases were eligible if adequately treated and neurologically returned to baseline ≥2 weeks before randomization. Eligible patients had to be off corticosteroids or on a stable or decreasing dose of ≤10 mg daily prednisone (or equivalent). […] Patients with an autoimmune disease or known EGFR mutations or ALK translocations sensitive to available targeted therapy were excluded. Only patients with ≥1% PD-L1 expression were randomized.
Maintenance pemetrexed was allowed in patients with nonsquamous NSCLC who had stable disease or response after cycle 4. […] Concomitant systemic corticosteroid treatment (<3-week courses) was allowed for non-autoimmune conditions, including but not limited to treatment-related adverse events (AEs) with a potential immunologic cause.
Randomization was stratified by PD-L1 expression (<5% vs. ≥5%) and tumor histology (squamous vs. nonsquamous).
The primary endpoint was PFS based on assessment by blinded independent central review (BICR) in patients with ≥5% PD-L1 expression. Secondary endpoints included PFS per BICR among all randomized patients (≥1% PD-L1 expression), OS among patients with ≥5% PD-L1 expression and among all randomized patients, and ORR per BICR among patients with ≥5% PD-L1 expression.
Tumor response was assessed every 6 weeks until week 48 and every 12 weeks thereafter. Safety assessments included the recording of AEs, graded according to the National Cancer Institute Common Terminology Criteria for Adverse Events, version 4.0.
For efficacy analyses, patients were grouped according to TMB tertile distribution.
Comparison of PFS and OS between treatment groups was performed by two-sided log-rank tests stratified by PD-L1 expression level (≥5% vs. <5%; for endpoints in all randomized patients) and tumor histology. A stratified Cox proportional-hazards model including the randomized treatment arm as a single covariate was used to estimate HRs and their associated 95% CIs. The Kaplan-Meier method was used to estimate survival curves. ORRs were compared between treatment arms with a two-sided, stratified Cochran-Mantel-Haenszel test. The Clopper-Pearson method was used to estimate ORRs and their exact 95% CIs.

[3] = exploratory subgroup with ≥50% PD-L1 expression
[4] = patients with high TMB (upper tertile)
[5] = patients with ≥5% PD-L1 expression
[6] = ≥5% PD-L1 expression, responders

Substance: Nivolumab
- PFS, median ([1]; TMB High, PD-L1 1%): 3.52 month
- ORR ([1]; TMB High, PD-L1 <1%): 30.4%
- PFS, median ([1]; TMB High, PD-L1 <1%): 3.02 month
- ORR ([1]; TMB Low): 10.9%
- OS, median ([1]; TMB Low): 5.72 months
- PFS, median ([1]; TMB Low): 1.91 month
- ORR ([1]; TMB Low, PD-L1 1%): 23.8%
- OS, median ([1]; TMB Low, PD-L1 1%): 8.57 months
- PFS, median ([1]; TMB Low, PD-L1 1%): 3.12 month
- ORR ([1]; TMB Low, PD-L1 <1%): 0%
- OS, median ([1]; TMB Low, PD-L1 <1%): 4.96 months
- PFS, median ([1]; TMB Low, PD-L1 <1%): 1.77 month
- ORR ([1]; TMB Medium): 17.4%
- OS, median ([1]; TMB Medium): 9.66 months
- PFS, median ([1]; TMB Medium): 1.87 month
- ORR ([1]; TMB Medium, PD-L1 1%): 12.0%
- OS, median ([1]; TMB Medium, PD-L1 1%): 11.30 months
- PFS, median ([1]; TMB Medium, PD-L1 1%): 1.94 month
- ORR ([1]; TMB Medium, PD-L1 <1%): 23.8%
- OS, median ([1]; TMB Medium, PD-L1 <1%): 4.53 months
- PFS, median ([1]; TMB Medium, PD-L1 <1%): 1.77 month
- OS, median ([1]; TMB Subgroup): 7.23 months
- PFS, median ([1]; TMB Subgroup): 2.00 month
- ORR ([1]; TMB Subgroup (N 139)): 20.1%
- ORR ([1]; TMB Subgroup, PD-L1 1%): 22.9%
- OS, median ([1]; TMB Subgroup, PD-L1 1%): 10.28 months
- PFS, median ([1]; TMB Subgroup, PD-L1 1%): 2.30 month
- ORR ([1]; TMB Subgroup, PD-L1 <1%): 17.4%
- OS, median ([1]; TMB Subgroup, PD-L1 <1%): 5.68 months
- PFS, median ([1]; TMB Subgroup, PD-L1 <1%): 1.87 month
- Complete or partial response ([2]; TMB High): 22 (46.8) n (%)
- Progressive disease ([2]; TMB High): 7 (14.9) n (%)
- Response could not be determined ([2]; TMB High): 3 (6.4) n (%)
- Stable disease ([2]; TMB High): 15 (31.9) n (%)
- Complete or partial response ([2]; TMB Low): 11 (17.7) n (%)
- Progressive disease ([2]; TMB Low): 21 (33.9) n (%)
- Response could not be determined ([2]; TMB Low): 5 (8.1) n (%)
- Stable disease ([2]; TMB Low): 25 (40.3) n (%)
- Complete or partial response ([2]; TMB Low/medium (pooled)): 25 (22.5) n (%)
- Progressive disease ([2]; TMB Low/medium (pooled)): 32 (28.9) n (%)
- Response could not be determined ([2]; TMB Low/medium (pooled)): 9 (8.1) n (%)
- Stable disease ([2]; TMB Low/medium (pooled)): 45 (40.5) n (%)
- Complete or partial response ([2]; TMB Medium): 14 (28.6) n (%)
- Progressive disease ([2]; TMB Medium): 11 (22.4) n (%)
- Response could not be determined ([2]; TMB Medium): 4 (8.2) n (%)
- Stable disease ([2]; TMB Medium): 20 (40.8) n (%)
- ORR [2, 3]: 34.1%
- OS hazard ratio, nivolumab versus chemotherapy [2, 3]: 0.90
- PFS hazard ratio, nivolumab versus chemotherapy [2, 3]: 1.07
- median PFS ([2]; patients with high TMB): 9.7 months
- PFS hazard ratio, nivolumab versus chemotherapy [2, 4]: 0.62
- objective response rate (ORR) [2, 4]: 46.8%
- OS hazard ratio, nivolumab versus chemotherapy [2, 5]: 1.02
- Objective response, % of patients (95% CI) [2, 5]: 26.1 (20.3-32.5) %
- Objective response, No. of patients [2, 5]: 55
- PFS hazard ratio, nivolumab versus chemotherapy [2, 5]: 1.15
- median OS [2, 5]: 14.4 months
- median PFS [2, 5]: 4.2 months
- Objective response, % of patients (95% CI) ([2]; patients with ≥5% PD-L1 expression, listed as nivolumab): 26.1%
- Best overall response: Complete response ([2]; ≥5% PD-L1 expression): 4 (1.9) no. (%)
- Best overall response: Could not be determined ([2]; ≥5% PD-L1 expression): 17 (8.1) no. (%)
- Best overall response: Partial response ([2]; ≥5% PD-L1 expression): 51 (24.2) no. (%)
- Best overall response: Progressive disease ([2]; ≥5% PD-L1 expression): 58 (27.5) no. (%)
- Best overall response: Stable disease ([2]; ≥5% PD-L1 expression): 81 (38.4) no. (%)
- Proportion of patients with a best response of progressive disease ([2]; ≥5% PD-L1 expression): 27.5%
- Objective response, estimated odds ratio (95% CI) ([2]; ≥5% PD-L1 expression, nivolumab versus chemotherapy): 0.70 (0.46-1.06)
- Duration of response, median [2, 6]: 12.1 mo
- Time to response, median [2, 6]: 2.8 mo
- Time to response, range [2, 6]: 1.2-13.2 mo
